From US20160122342A1, “ENHANCER OF ZESTE HOMOLOG 2 INHIBITORS” (GLAXOSMITHKLINE INTELLECTUAL PROPERTY (NO.2) LIMITED, priority 2013, published 2016)
Where two headings read alike, the source gives them in different places.

Conditions: rcm bond, DCM

CCN(c1cccc2c1C/C=C\COc1cc(C)nc(OC)c1CNC2=O)C1CCOCC1
ring closure, isolated yield (from C=CCOc1cc(C)nc(OC)c1CNC(=O)c1cccc(N(CC)C2CCOCC2)c1CC=C, 12-membered ring, Grubbs II (10+10 mol%, then 10 mg), 19.5 mM, 25.0 °C, 132.0 h): 19%

CCN(c1cccc2c1CC=CCOCc1cc(C)nc(OC)c1CNC2=O)C1CCOCC1
ring closure, isolated yield (from C=CCOCc1cc(C)nc(OC)c1CNC(=O)c1cccc(N(CC)C2CCOCC2)c1CC=C, 13-membered ring, Grubbs II (10 mol%), 20.0 mM, 25.0 °C, 22.0 h): 54.7%

CCN(c1cccc2c1CC=CCCc1cc(C)nc(OC)c1CNC2=O)[C@H]1CC[C@@H](NC(=O)OC(C)(C)C)CC1
ring closure, isolated yield (from C=CCCc1cc(C)nc(OC)c1CNC(=O)c1cccc(N(CC)[C@H]2CC[C@@H](NC(=O)OC(C)(C)C)CC2)c1CC=C, 12-membered ring, Hoveyda-Grubbs II (2 x 20 mol%), 39.8 mM, 55.0 °C, 72.0 h): 57.8%
